Results as given in patent publication US4431742A, “Radioreceptor assay for benzodiazepines in saliva” (The United States of America as represented by the …, priority 1981, dated 1984).

What follows are compounds tested on benzodiazepine receptor (fresh rat frontal cortex) (assay: recovery of benzodiazepines pre-incubated with saliva, measured by benzodiazepine radioreceptor assay). Settings: 100 nM diazepam pre-incubated with control saliva.
Assay type: binding

Structure (SMILES) | maximum percentage lowering of binding vs drug added directly with no saliva present
CN1C(=O)CN=C(c2ccccc2)c2cc(Cl)ccc21 [diazepam] | equivalent

What follows are compounds tested on diazepam receptor (fresh rat frontal cortex) (assay: radioreceptor assay: inhibition of ^3 H-diazepam binding (selectivity, drugs incubated with saliva)). Settings: 10^-5 M, ^3 H-diazepam 0.50 nM.

Structure (SMILES) | inhibition of ^3 H-diazepam binding compared with saliva itself
CN(C)CCCN1c2ccccc2Sc2ccc(Cl)cc21 [chlorpromazine] | failed to inhibit ^3 H-diazepam binding more than saliva itself
CNCCCN1c2ccccc2CCc2ccccc21 [desmethylimipramine] | failed to inhibit ^3 H-diazepam binding more than saliva itself
C=CCN1CC[C@]23CCCC[C@H]2[C@H]1Cc1ccc(O)cc13 [levallorphan] | failed to inhibit ^3 H-diazepam binding more than saliva itself
C#CCN(C)Cc1ccccc1 [pargyline] | failed to inhibit ^3 H-diazepam binding more than saliva itself
O=c1[nH]c2ccccc2n1C1CCN(CCCC(c2ccc(F)cc2)c2ccc(F)cc2)CC1 [pimozide] | failed to inhibit ^3 H-diazepam binding more than saliva itself
